# Source: patent publication US20240376121A1, “COMPOUNDS AND USES THEREOF” (Foghorn Therapeutics Inc., priority 2021, published 2024)
# Tests used:
# HiBit-BRM fusion protein = molecular target: T1, HiBit-BRM fusion protein (Homo sapiens, UniProt P51531); experiment: HiBiT-BRM cell-based degradation assay (Nano-Glo HiBiT Lytic Detection); conditions: stable HeLa cell line expressing HiBiT-BRM, 24 h incubation; for BRM HiBit Degradation Maximum (%): top dose 30 μM; for DC50: read-out: BRM HiBit Degradation IC50
# T1 construct: expressed in transfected cells
# How it was run: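 Percent BRM loss was derived from HiBiT luminescence relative to DMSO-treated cells and cells given 2 μM of a known BRM/BRG1 degrader. Treatment lasted 24 h in HiBiT-BRM HeLa cells, with a top final concentration of 30 μM.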
# [1] = molecular target: T2, HiBit-BRG1 fusion protein (Homo sapiens, UniProt P51532); experiment: HiBiT-BRG1 cell-based degradation assay (Nano-Glo HiBiT Lytic Detection); conditions: stable HeLa cell line expressing HiBit-BRG1 and LgBit, 24 h incubation; for Dmax: top dose 30 μM, read-out: BRG1 HiBit Degradation Maximum (%); for DC50: read-out: BRMG1 HiBit Degradation IC50
# T2 construct: expressed in transfected cells
# How it was run: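 Degradation was scored from HiBiT lytic luminescence, scaled between DMSO-treated wells and wells given 2 μM of a standard BRM/BRG1 degrader. Cells were a stable HeLa HiBiT-BRG1/LgBiT line dosed for 24 h, ten concentrations in 3-fold steps from 30 μM, in duplicate.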
# T1 sequence (P51531 whole entry, the tested form may be a part): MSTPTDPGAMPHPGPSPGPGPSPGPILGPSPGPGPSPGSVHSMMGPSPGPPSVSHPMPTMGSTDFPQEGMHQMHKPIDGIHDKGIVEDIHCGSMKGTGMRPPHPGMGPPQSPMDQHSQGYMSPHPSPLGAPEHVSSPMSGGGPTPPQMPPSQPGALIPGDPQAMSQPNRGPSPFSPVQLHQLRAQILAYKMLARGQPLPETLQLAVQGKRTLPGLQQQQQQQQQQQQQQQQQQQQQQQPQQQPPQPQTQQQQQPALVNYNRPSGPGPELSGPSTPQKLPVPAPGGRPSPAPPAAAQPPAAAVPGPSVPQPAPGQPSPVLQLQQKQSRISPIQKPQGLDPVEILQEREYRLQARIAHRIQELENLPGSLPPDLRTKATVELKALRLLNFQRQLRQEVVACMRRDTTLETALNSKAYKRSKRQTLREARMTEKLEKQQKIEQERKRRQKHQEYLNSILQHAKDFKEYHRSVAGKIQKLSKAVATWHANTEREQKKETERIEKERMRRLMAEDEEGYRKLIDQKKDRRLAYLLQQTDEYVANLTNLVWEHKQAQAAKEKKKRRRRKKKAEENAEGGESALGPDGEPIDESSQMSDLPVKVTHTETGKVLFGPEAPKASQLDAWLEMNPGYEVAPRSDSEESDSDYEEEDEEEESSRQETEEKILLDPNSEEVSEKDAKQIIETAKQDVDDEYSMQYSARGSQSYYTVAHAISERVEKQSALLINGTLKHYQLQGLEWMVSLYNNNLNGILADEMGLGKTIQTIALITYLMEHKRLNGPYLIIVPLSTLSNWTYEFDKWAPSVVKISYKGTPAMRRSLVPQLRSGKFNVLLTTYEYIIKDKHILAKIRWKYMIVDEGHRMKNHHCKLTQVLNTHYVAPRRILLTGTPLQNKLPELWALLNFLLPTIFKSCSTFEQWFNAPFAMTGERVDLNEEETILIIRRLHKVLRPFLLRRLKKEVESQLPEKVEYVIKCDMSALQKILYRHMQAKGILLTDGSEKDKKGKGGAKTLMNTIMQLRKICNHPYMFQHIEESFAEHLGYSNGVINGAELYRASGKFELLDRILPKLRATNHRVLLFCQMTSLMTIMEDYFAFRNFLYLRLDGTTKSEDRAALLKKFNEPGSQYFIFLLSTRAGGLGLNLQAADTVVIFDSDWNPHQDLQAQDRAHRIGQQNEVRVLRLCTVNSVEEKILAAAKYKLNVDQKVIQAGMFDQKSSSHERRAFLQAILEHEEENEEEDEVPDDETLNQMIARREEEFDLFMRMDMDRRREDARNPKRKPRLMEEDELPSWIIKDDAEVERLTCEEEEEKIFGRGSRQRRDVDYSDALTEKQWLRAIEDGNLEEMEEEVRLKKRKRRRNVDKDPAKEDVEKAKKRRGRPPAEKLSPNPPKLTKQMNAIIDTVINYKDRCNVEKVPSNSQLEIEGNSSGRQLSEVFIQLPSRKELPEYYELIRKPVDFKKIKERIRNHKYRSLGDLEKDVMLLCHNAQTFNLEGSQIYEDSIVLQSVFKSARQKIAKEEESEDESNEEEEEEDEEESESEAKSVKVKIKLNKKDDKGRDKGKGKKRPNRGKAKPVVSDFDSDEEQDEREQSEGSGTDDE
# T2 sequence (P51532 whole entry, the tested form may be a part): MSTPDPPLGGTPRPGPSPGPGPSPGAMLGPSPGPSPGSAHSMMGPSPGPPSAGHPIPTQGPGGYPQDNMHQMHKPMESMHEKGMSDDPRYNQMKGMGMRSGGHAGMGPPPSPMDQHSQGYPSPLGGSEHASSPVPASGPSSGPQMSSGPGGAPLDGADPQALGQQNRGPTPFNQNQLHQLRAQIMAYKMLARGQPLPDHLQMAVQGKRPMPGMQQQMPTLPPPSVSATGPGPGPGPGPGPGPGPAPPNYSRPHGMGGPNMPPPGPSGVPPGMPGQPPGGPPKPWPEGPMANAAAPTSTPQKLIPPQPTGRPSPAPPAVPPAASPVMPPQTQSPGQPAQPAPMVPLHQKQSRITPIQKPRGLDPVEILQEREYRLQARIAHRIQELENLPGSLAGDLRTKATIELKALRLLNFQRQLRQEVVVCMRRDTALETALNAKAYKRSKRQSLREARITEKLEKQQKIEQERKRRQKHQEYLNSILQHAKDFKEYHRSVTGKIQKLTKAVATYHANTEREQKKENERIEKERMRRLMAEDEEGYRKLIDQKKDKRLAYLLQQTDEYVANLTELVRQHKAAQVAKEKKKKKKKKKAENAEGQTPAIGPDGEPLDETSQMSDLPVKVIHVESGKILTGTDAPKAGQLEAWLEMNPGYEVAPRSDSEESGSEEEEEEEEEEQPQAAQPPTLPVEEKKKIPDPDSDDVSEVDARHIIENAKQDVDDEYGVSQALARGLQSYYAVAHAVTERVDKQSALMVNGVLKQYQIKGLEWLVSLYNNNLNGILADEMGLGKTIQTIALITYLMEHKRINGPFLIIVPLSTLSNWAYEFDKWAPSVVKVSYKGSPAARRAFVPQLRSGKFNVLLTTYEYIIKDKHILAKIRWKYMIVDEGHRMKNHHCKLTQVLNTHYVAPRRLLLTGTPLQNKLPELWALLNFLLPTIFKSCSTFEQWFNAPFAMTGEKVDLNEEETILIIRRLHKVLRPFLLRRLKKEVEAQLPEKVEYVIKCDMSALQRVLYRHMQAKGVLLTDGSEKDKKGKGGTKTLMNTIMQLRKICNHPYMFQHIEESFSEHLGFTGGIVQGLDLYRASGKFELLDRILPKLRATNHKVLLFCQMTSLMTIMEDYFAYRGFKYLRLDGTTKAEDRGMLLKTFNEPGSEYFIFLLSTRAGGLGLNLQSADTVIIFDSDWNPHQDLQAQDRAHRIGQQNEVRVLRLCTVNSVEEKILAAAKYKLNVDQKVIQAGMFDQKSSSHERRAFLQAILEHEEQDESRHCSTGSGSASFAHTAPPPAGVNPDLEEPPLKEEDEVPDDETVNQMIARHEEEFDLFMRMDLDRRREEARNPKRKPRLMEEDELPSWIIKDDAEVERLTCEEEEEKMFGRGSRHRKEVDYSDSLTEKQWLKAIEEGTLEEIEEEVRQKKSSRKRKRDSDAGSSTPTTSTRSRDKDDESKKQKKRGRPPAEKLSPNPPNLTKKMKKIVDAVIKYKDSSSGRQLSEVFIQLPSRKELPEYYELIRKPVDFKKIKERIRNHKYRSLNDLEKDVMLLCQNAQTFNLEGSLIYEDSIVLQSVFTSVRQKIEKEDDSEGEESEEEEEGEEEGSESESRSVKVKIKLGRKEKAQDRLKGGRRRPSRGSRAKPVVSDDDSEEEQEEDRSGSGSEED
smiles,measurement,setting,value
"Cc1ncsc1-c1ccc([C@H](C)NC(=O)[C@@H]2C[C@@H](O)CN2C(=O)[C@@H](c2cc(O[C@H]3C[C@H](N4CCC(c5sc6nnc(-c7ccccc7O)cc6c5C)CC4)C3)no2)C(C)C)cc1 [Compound 59, (2S,4R)-4-hydroxy-1-((R)-2-(3-((1r,3R)-3-(4-(3-(2-hydroxyphenyl)-5-methylthieno[2,3-c]pyridazin-6-yl)piperidin-1-yl)cyclobutoxy)isoxazol-5-yl)-3-methylbutanoyl)-N-((S)-1-(4-(4-methylthiazol-5-yl)phenyl)ethyl)pyrrolidine-2-carboxamide]",BRM HiBit Degradation Maximum (%),HiBit-BRM fusion protein,A (“A” indicates maximum degradation ≥ 75%)
same,DC50,HiBit-BRM fusion protein,≥ 1000 nM
same,Dmax,[1],< 50%
same,DC50,[1],≥ 1000 nM
"Cc1ncsc1-c1ccc([C@H](C)NC(=O)[C@@H]2C[C@@H](O)CN2C(=O)[C@@H](c2cc(OCCN3C[C@H]4C[C@@H]3C[C@H]4c3sc4nnc(-c5ccccc5O)cc4c3C)no2)C(C)C)cc1 [Compound 60, (2S,4R)-4-hydroxy-1-((R)-2-(3-(2-((1R,4S,5R)-5-(3-(2-hydroxyphenyl)-5-methylthieno[2,3-c]pyridazin-6-yl)-2-azabicyclo[2.2.1]heptan-2-yl)ethoxy)isoxazol-5-yl)-3-methylbutanoyl)-N-((S)-1-(4-(4-methylthiazol-5-yl)phenyl)ethyl)pyrrolidine-2-carboxamide]",BRM HiBit Degradation Maximum (%),HiBit-BRM fusion protein,A (“A” indicates maximum degradation ≥ 75%)
same,DC50,HiBit-BRM fusion protein,≥ 10 nM
same,Dmax,[1],≥ 50%
same,DC50,[1],≥ 100 nM
"Cc1ncsc1-c1ccc([C@H](C)NC(=O)[C@@H]2C[C@@H](O)CN2C(=O)[C@@H](c2cc(O[C@H]3C[C@@H](N4CCC(c5sc6nnc(-c7ccccc7O)cc6c5C)CC4)C3)no2)C(C)C)cc1 [Compound 61, (2S,4R)-4-hydroxy-1-((R)-2-(3-((1s,3S)-3-(4-(3-(2-hydroxyphenyl)-5-methylthieno[2,3-c]pyridazin-6-yl)piperidin-1-yl)cyclobutoxy)isoxazol-5-yl)-3-methylbutanoyl)-N-((S)-1-(4-(4-methylthiazol-5-yl)phenyl)ethyl)pyrrolidine-2-carboxamide]",BRM HiBit Degradation Maximum (%),HiBit-BRM fusion protein,C (“C” indicates maximum degradation < 50%)
same,DC50,HiBit-BRM fusion protein,≥ 1000 nM
same,Dmax,[1],< 50%
same,DC50,[1],≥ 1000 nM
"Cc1ncsc1-c1ccc([C@H](C)NC(=O)[C@@H]2C[C@@H](O)CN2C(=O)[C@@H](c2cc(OCCN3C[C@H]4C[C@@H](C3)[C@H]4c3sc4nnc(-c5ccccc5O)cc4c3C)no2)C(C)C)cc1 [Compound 62, (2S,4R)-4-hydroxy-1-((R)-2-(3-(2-((1R,5S,6S)-6-(3-(2-hydroxyphenyl)-5-methylthieno[2,3-c]pyridazin-6-yl)-3-azabicyclo[3.1.1]heptan-3-yl)ethoxy)isoxazol-5-yl)-3-methylbutanoyl)-N-((S)-1-(4-(4-methylthiazol-5-yl)phenyl)ethyl)pyrrolidine-2-carboxamide]",BRM HiBit Degradation Maximum (%),HiBit-BRM fusion protein,C (“C” indicates maximum degradation < 50%)
same,DC50,HiBit-BRM fusion protein,≥ 1000 nM
same,Dmax,[1],< 50%
same,DC50,[1],≥ 1000 nM
"Cc1ncsc1-c1ccc([C@H](C)NC(=O)[C@@H]2C[C@@H](O)CN2C(=O)[C@@H](c2cc(OCCN3C[C@H]4C[C@@H](C3)[C@@H]4c3sc4nnc(-c5ccccc5O)cc4c3C)no2)C(C)C)cc1 [Compound 63, (2S,4R)-4-hydroxy-1-((R)-2-(3-(2-((1R,5S,6R)-6-(3-(2-hydroxyphenyl)-5-methylthieno[2,3-c]pyridazin-6-yl)-3-azabicyclo[3.1.1]heptan-3-yl)ethoxy)isoxazol-5-yl)-3-methylbutanoyl)-N-((S)-1-(4-(4-methylthiazol-5-yl)phenyl)ethyl)pyrrolidine-2-carboxamide]",BRM HiBit Degradation Maximum (%),HiBit-BRM fusion protein,A (“A” indicates maximum degradation ≥ 75%)
same,DC50,HiBit-BRM fusion protein,≥ 10 nM
same,Dmax,[1],< 50%
same,DC50,[1],≥ 1000 nM
"Cc1ncsc1-c1ccc([C@H](C)NC(=O)[C@@H]2C[C@@H](O)CN2C(=O)[C@@H](c2cc(C34CC(C(=O)N5CCC(c6sc7nnc(-c8ccccc8O)cc7c6C)CC5)(C3)C4)no2)C(C)C)cc1 [Compound 64, (2S,4R)-4-hydroxy-1-((R)-2-(3-(3-(4-(3-(2-hydroxyphenyl)-5-methylthieno[2,3-c]pyridazin-6-yl)piperidine-1-carbonyl)bicyclo[1.1.1]pentan-1-yl)isoxazol-5-yl)-3-methylbutanoyl)-N-((S)-1-(4-(4-methylthiazol-5-yl)phenyl)ethyl)pyrrolidine-2-carboxamide]",BRM HiBit Degradation Maximum (%),HiBit-BRM fusion protein,A (“A” indicates maximum degradation ≥ 75%)
same,DC50,HiBit-BRM fusion protein,< 10 nM
same,Dmax,[1],≥ 75%
same,DC50,[1],< 10 nM
"Cc1ncsc1-c1ccc([C@H](C)NC(=O)[C@@H]2C[C@@H](O)CN2C(=O)[C@@H](NC(=O)c2cnc(N3CCC(c4sc5nnc(-c6ccccc6O)cc5c4C)CC3)nc2)C(C)(C)C)cc1 [Compound 65, N-((S)-1-((2S,4R)-4-hydroxy-2-(((S)-1-(4-(4-methylthiazol-5-yl)phenyl)ethyl)carbamoyl)pyrrolidin-1-yl)-3,3-dimethyl-1-oxobutan-2-yl)-2-(4-(3-(2-hydroxyphenyl)-5-methylthieno[2,3-c]pyridazin-6-yl)piperidin-1-yl)pyrimidine-5-carboxamide]",BRM HiBit Degradation Maximum (%),HiBit-BRM fusion protein,A (“A” indicates maximum degradation ≥ 75%)
same,DC50,HiBit-BRM fusion protein,≥ 10 nM
same,Dmax,[1],< 50%
same,DC50,[1],≥ 1000 nM
"Cc1ncsc1-c1ccc([C@H](C)NC(=O)[C@@H]2C[C@@H](O)CN2C(=O)[C@@H](c2cc(OCCN3CCN(c4sc5nnc(-c6ccccc6O)cc5c4C)CC3)no2)C(C)C)cc1 [Compound 66, (2S,4R)-4-hydroxy-1-((R)-2-(3-(2-(4-(3-(2-hydroxyphenyl)-5-methylthieno[2,3-c]pyridazin-6-yl)piperazin-1-yl)ethoxy)isoxazol-5-yl)-3-methylbutanoyl)-N-((S)-1-(4-(4-methylthiazol-5-yl)phenyl)ethyl)pyrrolidine-2-carboxamide]",BRM HiBit Degradation Maximum (%),HiBit-BRM fusion protein,A (“A” indicates maximum degradation ≥ 75%)
same,DC50,HiBit-BRM fusion protein,< 10 nM
same,Dmax,[1],≥ 75%
same,DC50,[1],≥ 10 nM
"Cc1ncsc1-c1ccc([C@H](C)NC(=O)[C@@H]2C[C@@H](O)CN2C(=O)[C@@H](c2cc(OCCN3CC4CC3CC4c3cc4cc(-c5ccccc5O)nnc4s3)no2)C(C)C)cc1 (stereo partly drawn) [Compound 67, (2S,4R)-4-hydroxy-1-((2R)-2-(3-(2-(5-(3-(2-hydroxyphenyl)thieno[2,3-c]pyridazin-6-yl)-2-azabicyclo[2.2.1]heptan-2-yl)ethoxy)isoxazol-5-yl)-3-methylbutanoyl)-N-((S)-1-(4-(4-methylthiazol-5-yl)phenyl)ethyl)pyrrolidine-2-carboxamide]",BRM HiBit Degradation Maximum (%),HiBit-BRM fusion protein,A (“A” indicates maximum degradation ≥ 75%)
same,DC50,HiBit-BRM fusion protein,≥ 100 nM
same,Dmax,[1],< 50%
same,DC50,[1],≥ 1000 nM
"Cc1ncsc1-c1ccc([C@H](C)NC(=O)[C@@H]2C[C@@H](O)CN2C(=O)[C@@H](c2cc(OCCN3CCC(c4sc5nnc(-c6ccccc6O)cc5c4F)CC3)no2)C(C)C)cc1 [Compound 68, (2S,4R)-1-((R)-2-(3-(2-(4-(5-fluoro-3-(2-hydroxyphenyl)thieno[2,3-c]pyridazin-6-yl)piperidin-1-yl)ethoxy)isoxazol-5-yl)-3-methylbutanoyl)-4-hydroxy-N-((S)-1-(4-(4-methylthiazol-5-yl)phenyl)ethyl)pyrrolidine-2-carboxamide]",BRM HiBit Degradation Maximum (%),HiBit-BRM fusion protein,B (“B” indicates maximum degradation ≥ 50%)
same,DC50,HiBit-BRM fusion protein,≥ 100 nM
same,Dmax,[1],< 50%
same,DC50,[1],≥ 1000 nM
"Cc1ncsc1-c1ccc([C@H](C)NC(=O)[C@@H]2C[C@@H](O)CN2C(=O)[C@@H](c2cc(OCCCN3CCc4sc5nnc(-c6ccccc6O)cc5c4C3)no2)C(C)C)cc1 [Compound 69, (2S,4R)-4-hydroxy-1-((R)-2-(3-(3-(3-(2-hydroxyphenyl)-7,8-dihydropyrido[3′,4′:4,5]thieno[2,3-c]pyridazin-6(5H)-yl)propoxy)isoxazol-5-yl)-3-methylbutanoyl)-N-((S)-1-(4-(4-methylthiazol-5-yl)phenyl)ethyl)pyrrolidine-2-carboxamide]",BRM HiBit Degradation Maximum (%),HiBit-BRM fusion protein,C (“C” indicates maximum degradation < 50%)
same,DC50,HiBit-BRM fusion protein,≥ 1000 nM
same,Dmax,[1],< 50%
same,DC50,[1],≥ 1000 nM
"Cc1ncsc1-c1ccc([C@H](C)NC(=O)[C@@H]2C[C@@H](O)CN2C(=O)[C@@H](c2cc(N3CCC(N4CCc5sc6nnc(-c7ccccc7O)cc6c5C4)CC3)no2)C(C)C)cc1 [Compound 70, (2S,4R)-4-hydroxy-1-((R)-2-(3-(4-(3-(2-hydroxyphenyl)-7,8-dihydropyrido[3′,4′:4,5]thieno[2,3-c]pyridazin-6(5H)-yl)piperidin-1-yl)isoxazol-5-yl)-3-methylbutanoyl)-N-((S)-1-(4-(4-methylthiazol-5-yl)phenyl)ethyl)pyrrolidine-2-carboxamide]",BRM HiBit Degradation Maximum (%),HiBit-BRM fusion protein,C (“C” indicates maximum degradation < 50%)
same,DC50,HiBit-BRM fusion protein,≥ 1000 nM
same,Dmax,[1],< 50%
same,DC50,[1],≥ 1000 nM
"Cc1ncsc1-c1ccc([C@H](C)NC(=O)[C@@H]2C[C@@H](O)CN2C(=O)[C@@H](c2cc(OCCN3C[C@H]4C[C@@H](C3)[C@@H]4c3cc4cc(-c5ccccc5O)nnc4s3)no2)C(C)C)cc1 [Compound 71, (2S,4R)-4-hydroxy-N-[(1S)-1-[4-(4-methyl-1,3-thiazol-5-yl)phenyl]ethyl]-1-[(2R)-3-methyl-2-(3-{2-[(1R,5S,6r)-6-[3-(2-hydroxyphenyl)thieno[2,3-c]pyridazin-6-yl]-3-azabicyclo[3.1.1]heptan-3-yl]ethoxy}-1,2-oxazol-5-yl)butanoyl]pyrrolidine-2-carboxamide]",BRM HiBit Degradation Maximum (%),HiBit-BRM fusion protein,A (“A” indicates maximum degradation ≥ 75%)
same,DC50,HiBit-BRM fusion protein,≥ 10 nM
same,Dmax,[1],< 50%
same,DC50,[1],≥ 1000 nM
